One experiment concerns IL-6. Nature of the experiment: IL-6 production by KS cells (ELISA). Format: cell-based, human. The settings on record: 0.1, 1 and 10 μM, 5 days + 24 hours. On the procedure: After 24 hours of incubation, the supernatants of the cultures were tested by ELISA (R & D Systems, Minneapolis, Minn., USA) to determine the quantity of IL-6 present in the medium. The quantity of IL-6 is expressed in pg/ml of supernatant. The same tests were carried out for bFGF, VEGF, IL-1α and IL-1β by means of commercial ELISA kits.
KS cells secrete cytokines with an inflammatory, oedemigenic, angiogenic and proliferative activity with autocrine and paracrine effects (Ensoli and Stürzl, 1998). These factors mediate all the processes required for KS-like lesions formation (angiogenesis, cellular proliferation and invasion, inflammatory Infiltration, oedema) and vascular permeability and oedema induced by KS cells in nude mice. […] The quantity of bFGF, VEGF, IL-1 and IL-6 was dosed with immuno-enzymatic trials in the supernatants of the KS cells after 24 hours of culture in the absence of serum and in the continuous presence of the two HIV-PI (ELISA). […] Furthermore IL-6 plays a key role in the multicentric Cstleman's diseases and in the growth of lymphomas (Tosato et al., 1993; Peterson and Frizzera, 1993; Asou et al., 1998; Ramsay et al., 1994), another type of tumour whose incidence is reduced in patients treated with HIV-PI (International Collaboration on HIV and Cancer 2000).

Experiment [1] has as its system endothelial/lung carcinoma hybrid (Ea-hy 926) cells. Nature of the experiment: Invasion assay of Ea-hy 926 cells in response to bFGF. In kind it is cell-based, human. The settings on record: 1 μM. The method, then: The assays have been performed essentially as described in key to FIG. 1. No growth factors were added to EA-hy 926 cells since they produce factors which mediates cell growth in autocrine fashion (Edgell et al., 1983, Albini et al., PNAS 1995, Albini et al., Nat Med 1996). […] The assays have been performed essentially as described in legend to FIG. 3. Average and variation range of two independent experiments each performed in duplicate are shown.

A further experiment has as its system EA-hy 926 cells. Nature of the experiment: Angiogenic tumours induced by EA-hy 926 cells in nude mice (drug pre-treatment). In kind it is in vivo. Conditions: EA-hy 926 cells 3×10^6; for No. of mice with macroscopic lesions/No. of inoculated mice / mice with macroscopic lesions (%): treatment since 2 days prior to inoculation. The method, then:
To determine whether HIV-PI could inhibit the growth of a malignant angiogenic tumour, nude mice were inoculated with the EA-hy 926 cell line. This cell line is derived from a hybrid between H-UVEC and human lung adeno-carcinoma cells (Edgell et al, PNAS 1983), retains most of the endothelial cell markers and is used as an angiogenic tumour model (Albini et al, Nat Med 1996; Albini et al, PNAS 1995; Cai et al, Lab Invest 1999). HIV-PI were administered to nude mice starting 2 days prior to tumour cell inoculation.
Mice were sacrificed 5-6 days after cell injection and lesions present at the injection site measured by caliper, and analyzed microscopically after H&E staining or by immuno-histochemical analysis. […] Tumour-associated angiogenesis was evaluated after immuno-histochemical staining for FVIII-RA or CD31 markers, as described in legend to Table 1. Shown are external lesion size (cm^2±SD) and the percentage of stained tumour tissue (±SD) as quantified by the KS300 image analysis software (Zeiss) (see methods).

Experiment [2] relates to breast carcinoma (MDA-MB468) cells. Nature of the experiment: Invasion assay of MDA-MB468 cells in response to bFGF. In kind it is cell-based, human. The settings on record: 0.1, 1 or 10 μM. The method, then:
Shown is the result of a representative invasion assay performed on the breast carcinoma cells MDA-MB468. […] The invasion assays were performed in the Boyden chamber. Polycarbonate filters ([…]; Nucleoprobe, Cabin John, Md.) were coated first with collagen IV and then with Matrigel (Collaborative Biomedical Products) as described previously (Barillari et al., 1999b). […] Human recombinant bFGF (50 ng/ml) was placed in the lower compartment as chemoattractant. […] Louis, Mo.). Ten random filter fields were counted by light microscopy as described previously (Barillari et al., 1999b). Assays were repeated two times.

Experiment [3] relates to lesions promoted by bFGF and HIV-1 Tat combined. Nature of the experiment: KS-like lesions promoted by bFGF and HIV-1 Tat combined in nude mice. The settings on record: bFGF 1 μg + Tat 10 μg. In kind it is in vivo. The source says: Here are listed the number (N.) of mice that developed lesions with respect to the number (N.) of mice inoculated, and the percentage (%) of mice that developed lesions.

Experiment [4] concerns lung carcinoma cells (A549). Nature of the experiment: Cell growth assay of A549 cells. Conditions: 10 μM; 4 days. In kind it is cell-based, human. On the procedure:
Shown is the result of a representative cell growth assay performed on the lung carcinoma cells. Human lung carcinoma cells (A549; ATCC) were plated in triplicate (8×10^4 cells/well) in 12-well plates. […] Ensoli et al., 1994b): For all the in vitro studies HIV-PI as endotoxin-free pure powder (a kind gift of Merck Sharp & Dohme and Roche) were resuspended in distilled water. Assays were repeated at least three times.

The test system of experiment [5] is dermal microvascular endothelial cells (H-DMVEC). Nature of the experiment: Proliferation assay of dermal microvascular endothelial cells with bFGF. Format: cell-based, human. The settings on record: 10 μM; 5 days; bFGF 10 ng/ml. The source says:
After 5 days of culture, cells were counted by trypan blue dye exclusion, as described above. Data from duplicate experiments are expressed as the number of […] grown in response to bFGF in the presence of indinavir, saquinavir or HIV-PI-resuspension buffer.

The subject of the next experiment is KS cells. Nature of the experiment: KS cell invasion of matrigel, Boyden chamber, bFGF chemo-attractant. The settings on record: KS3, KS8, KS12 strains; dose-dependent. In kind it is cell-based, human. On the procedure: Both drugs inhibited the capacity of the KS cells to invade the Matrigel membrane in a dose-dependent manner. In particular, both the HIV-PI inhibited invasion as compared to the levels observed in control KS cells (p<0.05).
The assay was performed as described in FIG. 3. […] The cells were harvested and then plated in duplicate (5×10^5 in a culture medium containing 0.05% BSA) in the upper compartment of the Boyden chamber, always in the presence of HIV-PI or buffer. bFGF (20 ng/ml) was placed in the bottom compartment as a chemo-attractant.
After 6 hours the cells that invaded the matrigel membrane were stained and counted as described in the key to FIG. 3.
In contrast, both drugs inhibited KS cell capability of invading a matrigel substrate in a dose-dependent manner. In particular, both HIV-PI inhibit the invasion of KS cells by 30-40% (p<0.05) (Table 4 and FIG. 13).
Migration and invasion assays were carried out essentially as detailed in the key to FIGS. 2 and 3.

A further experiment relates to smooth muscle cells. Nature of the experiment: Cell growth assay of smooth muscle cells in response to bFGF. In kind it is cell-based, human. The text has this: Assays have been essentially performed as described in key to FIGS. 1 and 3. […] Data of duplicate experiments (mean) are shown.

Entries after “also recorded” stand apart in the source; their conditions may differ.

With `CC(C)(C)NC(=O)[C@@H]1CN(Cc2cccnc2)CCN1C[C@@H](O)C[C@@H](Cc1ccccc1)C(=O)N[C@H]1c2ccccc2C[C@H]1O` [Indinavir, indinavir], the “production of IL-6 by KS cells” value in the experiment on IL-6 is on record as “inhibited”. The “production of IL-6 by KS cells” value in the experiment with IL-6 (listed as indinavir) is on record as “reduced”. In addition, in experiment [1], the “invasion in response to bFGF” value is “inhibit”. Moreover, in the experiment on EA-hy 926 cells, the “External lesion size (cm^2 ± SD)” value is recorded as 0.63 ± 0.17 cm^2, the “Tissue staining (area % ± SD) CD31” value came out at 0.70 ± 0.6%, the “Tissue staining (area % ± SD) FVIII-RA” value was 1.01 ± 1.5% and the “No. of mice with macroscopic lesions/No. of inoculated mice” value is recorded as 4/12. In addition, in the experiment with EA-hy 926 cells, the “mice with macroscopic lesions (%)” value is 33.3%. Also, the “mice with macroscopic lesions (%)” value with EA-hy 926 cells (listed as indinavir) came to 33%. Further, the “invasive capacity in response to bFGF” value in [2] is “inhibit”. Besides, in [3], the “No. of macroscopic vascular lesions/No. of mice injected” value was 5/10 and the “mice that developed lesions (%)” value is 50%. In addition, the proliferation entry in [4] was “do not interfere”. Moreover, the “proliferation in response to bFGF” value in [5] is given as “do not interfere”. Moreover, the “invasive capacity of KS cells” value in the experiment with KS cells was “inhibit”. Besides, the “proliferation in response to bFGF” value in the experiment with smooth muscle cells was “do not interfere”.
On to `CC(C)(C)NC(=O)[C@@H]1C[C@@H]2CCCC[C@@H]2CN1C[C@@H](O)[C@H](Cc1ccccc1)NC(=O)[C@H](CC(N)=O)NC(=O)c1ccc2ccccc2n1` [Saquinavir, saquinavir], for which the “production of IL-6 by KS cells” value with IL-6 was “reduced; also recorded: inhibited”. For the same compound, in experiment [1], the “invasion in response to bFGF” value was “inhibit”. Moreover, in the experiment with EA-hy 926 cells, the “External lesion size (cm^2 ± SD)” value is given as 0.55 ± 0.14 cm^2, the “Tissue staining (area % ± SD) CD31” value is 0.08 ± 0.1%, the “Tissue staining (area % ± SD) FVIII-RA” value was 0.71 ± 0.8% and the “No. of mice with macroscopic lesions/No. of inoculated mice” value is on record as 3/12. Further, the “mice with macroscopic lesions (%)” value in the experiment on EA-hy 926 cells is 25%. The “invasive capacity in response to bFGF” value in experiment [2] is “inhibit”. Further, in experiment [3], the “No. of macroscopic vascular lesions/No. of mice injected” value was 2/10 and the “mice that developed lesions (%)” value stood at 20%. Besides, in experiment [4], the proliferation entry was “do not interfere”. The “proliferation in response to bFGF” value in experiment [5] is reported as “do not interfere”. In the experiment on KS cells, the “invasive capacity of KS cells” value is given as “inhibit”. In addition, the “proliferation in response to bFGF” value in the experiment on smooth muscle cells is recorded as “do not interfere”.
